Experiments:
monoubiquitinated PCNA = assay: AlphaLISA assay measuring monoubiquitinated PCNA in MDA-MB-436; format: cell-based; conditions: Homo sapiens, MDA-MB-436, monoubiquitinated PCNA, read-out: Alpha Lisa IC50
Description: Table 1 also indicates IC50 values for exemplary compounds in an AlphaLISA assay measuring monoubiquitinated PCNA in a BRCA1 mutant cell line (MDA-MB-436; column 7).

HCC1954 = assay: Viability assay, BRCA1 WT cell line HCC1954; format: cell-based; conditions: Homo sapiens, HCC1954, viability, read-out: HCC1954 rel IC50
Description: (§1) Table 1 also indicates IC50 values in a viability assay for a non-isogenic pair of BRCA1 mutant (column 5-MDA-MB-436) and BRCA1 WT (column 6—HCC1954) cell lines. These values indicate the effect of treatment with compound on cell survival.

MDA-MB-436 = assay: Viability assay, BRCA1 mutant cell line MDA-MB-436; format: cell-based; conditions: Homo sapiens, MDA-MB-436, viability, BRCA1 mutant MDA-MB-436; read-out: MDA-MB-436 rel IC50
Description: as §1

USP1-UAF1 = USP1-UAF1 (Homo sapiens, UniProt O94782); assay: Ubiquitin Rhodamine assay of USP1-UAF1 activity; format: biochemical
USP1-UAF1, sequence (O94782 whole entry): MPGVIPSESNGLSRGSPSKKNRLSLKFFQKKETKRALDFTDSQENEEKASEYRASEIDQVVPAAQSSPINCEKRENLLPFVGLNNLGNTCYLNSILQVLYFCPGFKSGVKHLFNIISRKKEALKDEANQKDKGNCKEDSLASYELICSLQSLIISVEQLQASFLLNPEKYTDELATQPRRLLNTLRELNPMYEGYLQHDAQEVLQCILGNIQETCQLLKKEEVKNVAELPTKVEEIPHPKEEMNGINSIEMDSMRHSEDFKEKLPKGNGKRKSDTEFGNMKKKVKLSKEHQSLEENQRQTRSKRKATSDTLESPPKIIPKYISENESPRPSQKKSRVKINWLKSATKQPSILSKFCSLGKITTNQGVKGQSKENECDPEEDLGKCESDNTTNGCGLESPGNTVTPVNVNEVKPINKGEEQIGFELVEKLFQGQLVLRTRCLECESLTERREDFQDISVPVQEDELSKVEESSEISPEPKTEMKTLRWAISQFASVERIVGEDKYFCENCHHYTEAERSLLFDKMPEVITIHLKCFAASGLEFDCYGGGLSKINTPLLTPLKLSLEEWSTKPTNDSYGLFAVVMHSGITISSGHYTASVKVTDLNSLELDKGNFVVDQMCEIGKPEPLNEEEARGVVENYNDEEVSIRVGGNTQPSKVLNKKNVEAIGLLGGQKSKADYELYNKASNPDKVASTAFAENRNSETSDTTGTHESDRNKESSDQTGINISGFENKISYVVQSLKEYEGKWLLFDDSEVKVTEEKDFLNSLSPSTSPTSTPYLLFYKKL
USP1-UAF1, sequence (Q8TAF3 whole entry partner): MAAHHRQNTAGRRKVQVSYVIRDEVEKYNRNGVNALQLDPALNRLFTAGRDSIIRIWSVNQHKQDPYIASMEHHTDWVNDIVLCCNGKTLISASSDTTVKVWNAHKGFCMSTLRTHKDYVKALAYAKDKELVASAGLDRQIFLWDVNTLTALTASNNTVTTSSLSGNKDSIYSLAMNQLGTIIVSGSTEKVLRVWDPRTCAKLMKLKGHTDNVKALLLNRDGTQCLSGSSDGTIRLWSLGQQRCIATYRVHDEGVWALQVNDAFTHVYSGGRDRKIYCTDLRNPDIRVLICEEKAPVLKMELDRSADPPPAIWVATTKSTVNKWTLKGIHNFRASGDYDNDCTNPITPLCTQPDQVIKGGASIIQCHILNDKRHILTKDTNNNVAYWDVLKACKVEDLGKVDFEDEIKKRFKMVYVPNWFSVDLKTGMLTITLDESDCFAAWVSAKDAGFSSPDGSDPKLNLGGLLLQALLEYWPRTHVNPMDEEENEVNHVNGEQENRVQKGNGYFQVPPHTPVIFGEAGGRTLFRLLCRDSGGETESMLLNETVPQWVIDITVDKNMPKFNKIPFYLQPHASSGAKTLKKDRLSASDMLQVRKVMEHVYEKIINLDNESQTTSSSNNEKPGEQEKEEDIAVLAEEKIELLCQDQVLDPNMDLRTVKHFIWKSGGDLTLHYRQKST
Experimental: Certain compounds of the disclosure were assessed for USP1-UAF1 activity in a Ubiquitin Rhodamine assay as described in Biology Example 1.

IC50 (monoubiquitinated PCNA)	IC50 (HCC1954)	IC50 (MDA-MB-436)	IC50 (USP1-UAF1)	SMILES
< 100 nM	≥ 10000 nM	< 100 nM	< 30 nM	CC(C)c1ccccc1-c1ncc2c(n1)n(Cc1ccc(-c3nc(Cl)cn3C)cc1)c(=N)n2C [Example A-6, 9-(4-(4-chloro-1-methyl-1H-imidazol-2-yl)benzyl)-2-(2-isopropylphenyl)-7-methyl-7,9-dihydro-8H-purin-8-imine]
< 100 nM	250 to 10000 nM	< 100 nM	< 30 nM	Cc1nc(-c2ccccc2C(C)C)nc2c1n(C)c(=N)n2Cc1ccc(-c2nc(C(F)(F)F)cn2C)cc1 [Example A-8, 2-(2-isopropylphenyl)-6,7-dimethyl-9-(4-(1-methyl-4-(trifluoromethyl)-1H-imidazol-2-yl)benzyl)-7,9-dihydro-8H-purin-8-imine]
250 to 10000 nM	≥ 10000 nM	250 to 10000 nM	100 to 10000 nM	Cn1cc(Cl)nc1-c1ccc(Cn2c(=N)n(C)c3cnc(-c4ccccc4Cl)nc32)cc1 [Example A-11, 9-(4-(4-chloro-1-methyl-1H-imidazol-2-yl)benzyl)-2-(2-chlorophenyl)-7-methyl-7,9-dihydro-8H-purin-8-imine]
< 100 nM	≥ 10000 nM	< 100 nM	< 30 nM	C=C(C)c1ccccc1-c1ncc2c(n1)n(Cc1ccc(-c3nc(Cl)cn3C)cc1)c(=N)n2C [Example A-12, 9-(4-(4-chloro-1-methyl-1H-imidazol-2-yl)benzyl)-7-methyl-2-(2-(prop-1-en-2-yl)phenyl)-7,9-dihydro-8H-purin-8-imine]
250 to 10000 nM	250 to 10000 nM	250 to 10000 nM	100 to 10000 nM	CC(C)c1ccccc1-c1nc(C#N)c2c(n1)n(Cc1ccc(-c3nc(C(F)(F)F)cn3C)cc1)c(=N)n2C [Example A-13, 8-imino-2-(2-isopropylphenyl)-7-methyl-9-(4-(1-methyl-4-(trifluoromethyl)-1H-imidazol-2-yl)benzyl)-8,9-dihydro-7H-purine-6-carbonitrile]
< 100 nM	250 to 10000 nM	< 100 nM	< 30 nM	CCn1c(=N)n(Cc2ccc(-c3nc(C(F)(F)F)cn3C)cc2)c2nc(-c3ccccc3C(C)C)ncc21 [Example A-14, 7-ethyl-2-(2-isopropylphenyl)-9-(4-(1-methyl-4-(trifluoromethyl)-1H-imidazol-2-yl)benzyl)-7,9-dihydro-8H-purin-8-imine]
< 100 nM	250 to 10000 nM	< 100 nM	< 30 nM	C=C(C)c1ccccc1-c1nc(C)c2c(n1)n(Cc1ccc(-c3nc(C(F)(F)F)cn3C)cc1)c(=N)n2C [Example A-16, 6,7-dimethyl-9-(4-(1-methyl-4-(trifluoromethyl)-1H-imidazol-2-yl)benzyl)-2-(2-(prop-1-en-2-yl)phenyl)-7,9-dihydro-8H-purin-8-imine]
250 to 10000 nM	250 to 10000 nM	250 to 10000 nM	100 to 10000 nM	CC(C)c1ccccc1-c1nc(N(C)C)c2c(n1)n(Cc1ccc(-c3nc(C(F)(F)F)cn3C)cc1)c(=N)n2C [Example A-17, 8-imino-2-(2-isopropylphenyl)-N,N,7-trimethyl-9-(4-(1-methyl-4-(trifluoromethyl)-1H-imidazol-2-yl)benzyl)-8,9-dihydro-7H-purin-6-amine]
≥ 10000 nM	250 to 10000 nM	250 to 10000 nM	100 to 10000 nM	CNc1nc(-c2ccccc2C(C)C)nc2c1n(C)c(=N)n2Cc1ccc(-c2nc(C(F)(F)F)cn2C)cc1 [Example A-18, 8-imino-2-(2-isopropylphenyl)-N, 7-dimethyl-9-(4-(1-methyl-4-(trifluoromethyl)-1H-imidazol-2-yl)benzyl)-8,9-dihydro-7H-purin-6-amine]
< 100 nM	250 to 10000 nM	< 100 nM	< 30 nM	Cc1cc(Cl)nn1-c1ccc(Cn2c(=N)n(C)c3cnc(-c4ccccc4C(C)C)nc32)cc1 [Example A-21, 9-(4-(3-chloro-5-methyl-1H-pyrazol-1-yl)benzyl)-2-(2-isopropylphenyl)-7-methyl-7,9-dihydro-8H-purin-8-imine]
250 to 10000 nM	250 to 10000 nM	250 to 10000 nM	< 30 nM	CC(C)c1ccccc1-c1nc(C2CC2)c2c(n1)n(Cc1ccc(-c3nc(C(F)(F)F)cn3C)cc1)c(=N)n2C [Example A-23, 6-cyclopropyl-2-(2-isopropylphenyl)-7-methyl-9-(4-(1-methyl-4-(trifluoromethyl)-1H-imidazol-2-yl)benzyl)-7,9-dihydro-8H-purin-8-imine]
250 to 10000 nM	250 to 10000 nM	250 to 10000 nM	30 to 100 nM	CC(C)c1ccccc1-c1ncc2c(n1)n(Cc1ccc(-n3ccc(C(F)(F)F)n3)cc1)c(=N)n2C [Example A-24, 2-(2-isopropylphenyl)-7-methyl-9-(4-(3-(trifluoromethyl)-1H-pyrazol-1-yl)benzyl)-7,9-dihydro-8H-purin-8-imine]
250 to 10000 nM	250 to 10000 nM	250 to 10000 nM	30 to 100 nM	CC(C)c1ccccc1-c1ncc2c(n1)n(Cc1ccc(-c3nc(C(F)(F)F)cs3)cc1)c(=N)n2C [Example A-25, 2-(2-isopropylphenyl)-7-methyl-9-(4-(4-(trifluoromethyl)thiazol-2-yl)benzyl)-7,9-dihydro-8H-purin-8-imine]
100 to 250 nM	250 to 10000 nM	250 to 10000 nM	< 30 nM	Cc1nc(-c2cc(F)ccc2C(C)C)nc2c1n(C)c(=N)n2Cc1ccc(-c2nc(Cl)cn2C)cc1 [Example A-27, 9-(4-(4-chloro-1-methyl-1H-imidazol-2-yl)benzyl)-2-(5-fluoro-2-isopropylphenyl)-6,7-dimethyl-7,9-dihydro-8H-purin-8-imine]
< 100 nM	≥ 10000 nM	< 100 nM	< 30 nM	Cc1nc(-c2cccc(F)c2C(C)C)nc2c1n(C)c(=N)n2Cc1ccc(-c2nc(Cl)cn2C)cc1 [Example A-28, 9-(4-(4-chloro-1-methyl-1H-imidazol-2-yl)benzyl)-2-(3-fluoro-2-isopropylphenyl)-6,7-dimethyl-7,9-dihydro-8H-purin-8-imine]
< 100 nM	≥ 10000 nM	< 100 nM	< 30 nM	CC(C)c1ccccc1-c1ncc2c(n1)n(Cc1ccc(-c3nc(C(F)(F)F)cn3C)cc1F)c(=N)n2C [Example A-29, 9-(2-fluoro-4-(1-methyl-4-(trifluoromethyl)-1H-imidazol-2-yl)benzyl)-2-(2-isopropylphenyl)-7-methyl-7,9-dihydro-8H-purin-8-imine]
< 100 nM	250 to 10000 nM	< 100 nM	< 30 nM	C=C(C)c1c(F)cccc1-c1nc(C)c2c(n1)n(Cc1ccc(-c3nc(Cl)cn3C)cc1)c(=N)n2C [Example A-30, 9-(4-(4-chloro-1-methyl-1H-imidazol-2-yl)benzyl)-2-(3-fluoro-2-(prop-1-en-2-yl)phenyl)-6,7-dimethyl-7,9-dihydro-8H-purin-8-imine]
< 100 nM	250 to 10000 nM	< 100 nM	< 30 nM	C=C(C)c1c(F)cccc1-c1nc(C)c2c(n1)n(Cc1ccc(-c3nc(C(F)(F)F)cn3C)cc1)c(=N)n2C [Example A-31, 2-(3-fluoro-2-(prop-1-en-2-yl)phenyl)-6,7-dimethyl-9-(4-(1-methyl-4-(trifluoromethyl)-1H-imidazol-2-yl)benzyl)-7,9-dihydro-8H-purin-8-imine]
< 100 nM	250 to 10000 nM	100 to 250 nM	< 30 nM	CC(C)c1ccccc1-c1ncc2c(n1)n(Cc1ccc(-c3nc(C(F)(F)F)cn3C)cc1)c(=N)n2C1CCC1 [Example A-34, 7-cyclobutyl-2-(2-isopropylphenyl)-9-(4-(1-methyl-4-(trifluoromethyl)-1H-imidazol-2-yl)benzyl)-7,9-dihydro-8H-purin-8-imine]
100 to 250 nM	250 to 10000 nM	250 to 10000 nM	30 to 100 nM	CC(C)c1ccccc1-c1nc(-c2ccccn2)c2c(n1)n(Cc1ccc(-c3nc(C(F)(F)F)cn3C)cc1)c(=N)n2C [Example A-35, 2-(2-isopropylphenyl)-7-methyl-9-(4-(1-methyl-4-(trifluoromethyl)-1H-imidazol-2-yl)benzyl)-6-(pyridin-2-yl)-7,9-dihydro-8H-purin-8-imine]
250 to 10000 nM	≥ 10000 nM	250 to 10000 nM	100 to 10000 nM	Cc1nc(-c2ccccc2Cl)nc2c1n(C)c(=N)n2Cc1ccc(-c2nc(Cl)cn2C)cc1 [Example A-36, 9-(4-(4-chloro-1-methyl-1H-imidazol-2-yl)benzyl)-2-(2-chlorophenyl)-6,7-dimethyl-7,9-dihydro-8H-purin-8-imine]
100 to 250 nM	≥ 10000 nM	250 to 10000 nM	< 30 nM	COc1cc(Cn2c(=N)n(C)c3cnc(-c4ccccc4C(C)C)nc32)ccc1-c1nc(C(F)(F)F)cn1C [Example A-37, 2-(2-isopropylphenyl)-9-(3-methoxy-4-(1-methyl-4-(trifluoromethyl)-1H-imidazol-2-yl)benzyl)-7-methyl-7,9-dihydro-8H-purin-8-imine]
< 100 nM	250 to 10000 nM	< 100 nM	< 30 nM	Cc1nc(-c2ccccc2C(C)C)nc2c1n(C)c(=N)n2Cc1ccc(-c2nc(Cl)cn2C)cc1 [Example A-38, 9-(4-(4-chloro-1-methyl-1H-imidazol-2-yl)benzyl)-2-(2-isopropylphenyl)-6,7-dimethyl-7,9-dihydro-8H-purin-8-imine]
